Measurements from PubChem BioAssay (NCI).
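1) Cells in 96-well plates. 2) Compound, 48 h, 5 concentrations. 3) Linear interpolation between surrounding doses. 4) Unreached endpoint = highest concentration. Abbreviation: GI50, concentration required for 50% inhibition of growth. Definition used: TGI = concentration required for complete inhibition of growth.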

Columns and labels:
Assay in all cases: inhibition of tumour cell growth, NCI panel, 48 h
A549 NSCLC = test system: A549 NSCLC
BT-549 breast = test system: BT-549 breast
DU-145 prostate = test system: DU-145 prostate
HCT-15 colon = test system: HCT-15 colon
HS 578T breast = test system: HS 578T breast
LOX IMVI melanoma = test system: LOX IMVI melanoma
M14 melanoma = test system: M14 melanoma
NCI-H522 lung = test system: NCI-H522 lung
SW-620 colon = test system: SW-620 colon
T-47D breast = test system: T-47D breast

SMILES | GI50 (A549 NSCLC) | TGI (A549 NSCLC) | GI50 (BT-549 breast) | TGI (BT-549 breast) | GI50 (DU-145 prostate) | TGI (DU-145 prostate) | GI50 (HCT-15 colon) | TGI (HCT-15 colon) | GI50 (HS 578T breast) | TGI (HS 578T breast) | GI50 (LOX IMVI melanoma) | TGI (LOX IMVI melanoma) | GI50 (M14 melanoma) | TGI (M14 melanoma) | GI50 (NCI-H522 lung) | TGI (NCI-H522 lung) | GI50 (SW-620 colon) | TGI (SW-620 colon) | GI50 (T-47D breast) | TGI (T-47D breast)
COC(=O)c1cc2cc(/C=C3/SC(=S)N(N(C(C)=O)C(C)=O)C3=O)oc2n1Cc1ccccc1 | 18.1 µM | 45.9 µM | 24.2 µM | 54.2 µM | 20.7 µM | 73.4 µM | 15 µM | 52.1 µM | 24.2 µM | 76.6 µM | 13.9 µM | 31.4 µM | 11 µM | 40.6 µM | 19.1 µM | 48.6 µM | 41 µM | > 100 µM | > 100 µM | > 100 µM
NS(=O)(=O)c1ccc(N=Nc2c[nH]c(=O)c(O)c2)cc1 | – | > 100 µM | – | > 100 µM | – | > 100 µM | – | > 100 µM | – | > 100 µM | – | > 100 µM | – | > 100 µM | – | 28.6 µM | – | > 100 µM | – | > 100 µM
CCN1C(=O)N(CC)C2C1N=C(SC)N2/N=C/C=C/c1ccccc1OC (configuration not stated) | 0.469 µM | > 47.8 µM | 0.479 µM | 19.6 µM | 0.428 µM | > 45.3 µM | 0.37 µM | > 35.7 µM | 0.422 µM | > 56.4 µM | 0.564 µM | > 36.7 µM | 0.33 µM | > 37.4 µM | 0.308 µM | – | 0.412 µM | > 100 µM | > 32.8 µM | > 58.8 µM
N#Cc1c(N)nc(N2CCOCC2)c(C#N)c1-c1c(Cl)cccc1Cl | 10.3 µM | 95.6 µM | 7 µM | 79.7 µM | 16.9 µM | > 100 µM | 4.04 µM | 25.8 µM | 5.07 µM | 63.9 µM | 5.88 µM | 24 µM | 2.47 µM | 7.42 µM | 2.36 µM | 8.38 µM | 5.16 µM | > 100 µM | 3.43 µM | 10.1 µM
FC(F)(F)c1cccc(-c2[nH]ncc2-c2nnnn2-c2ccccc2)c1 | 4.54 µM | 84.9 µM | 3.78 µM | 13.9 µM | 7.43 µM | 21.5 µM | 3.71 µM | 16.3 µM | 4.85 µM | 28.4 µM | 6.41 µM | 19.5 µM | 3.21 µM | 11.6 µM | 4.58 µM | 19 µM | 3.23 µM | 12.2 µM | 4.23 µM | 24.7 µM
CN1CCN(c2ccc(NC3=CC(=O)c4ncncc4C3=O)cc2)CC1 | 0.405 µM | 2.3 µM | 1.6 µM | 3.04 µM | 0.639 µM | 1.88 µM | 0.343 µM | 1.44 µM | 1.74 µM | 6.29 µM | 0.192 µM | 0.401 µM | 0.276 µM | 0.744 µM | 0.597 µM | 1.72 µM | 0.336 µM | 1.27 µM | 0.231 µM | 0.651 µM
COc1ccc2c(c1)/C(=N/OC(C)=O)c1c-2c(OC)nc2ccccc12 | > 100 µM | > 100 µM | > 100 µM | > 100 µM | > 100 µM | > 100 µM | > 100 µM | > 100 µM | 48.1 µM | > 100 µM | > 100 µM | > 100 µM | > 100 µM | > 100 µM | > 100 µM | > 100 µM | > 100 µM | > 100 µM | 27.7 µM | > 100 µM
CCC(=O)Nc1nnc(Cc2ccc(OC)c(OC)c2)s1 | > 100 µM | > 100 µM | > 100 µM | > 100 µM | > 100 µM | > 100 µM | > 100 µM | > 100 µM | > 100 µM | > 100 µM | > 100 µM | > 100 µM | > 100 µM | > 100 µM | > 100 µM | > 100 µM | > 100 µM | > 100 µM | > 100 µM | > 100 µM
Oc1[nH]c2ccccc2c1C=Nc1ccc(-n2cncn2)cc1 | > 18.5 µM | > 25 µM | > 18.9 µM | > 25 µM | > 22.5 µM | > 25 µM | 18.8 µM | > 25 µM | > 25 µM | > 25 µM | > 19.2 µM | > 25 µM | > 25 µM | > 25 µM | 10.7 µM | > 25 µM | > 25 µM | > 25 µM | 8.79 µM | > 21.9 µM
COc1cc(C(=O)O[C@H](C(=O)NCCCCNC(=O)[C@@H](OC(=O)c2cc(OC)cc3c(C)cccc23)[C@]2(C)CO2)[C@]2(C)CO2)c2cccc(C)c2c1 | 0.26 µM | 0.699 µM | 0.305 µM | 5.53 µM | – | 0.352 µM | 0.104 µM | 1.18 µM | 0.479 µM | > 100 µM | < 0.01 µM | < 0.01 µM | 0.0769 µM | 0.591 µM | 0.0207 µM | 10.9 µM | < 0.0111 µM | – | 0.253 µM | 1.74 µM
O=C1NC(=NCCc2ccc(Br)cc2)S/C1=C\c1ccc2ncccc2c1 | > 25 µM | > 25 µM | > 21.6 µM | > 25 µM | > 25 µM | > 25 µM | > 22.3 µM | > 25 µM | 11 µM | > 25 µM | > 25 µM | > 25 µM | > 25 µM | > 25 µM | 12.9 µM | > 25 µM | > 25 µM | > 25 µM | > 17.1 µM | > 25 µM
COc1cc(-c2ccc[nH]2)[nH]c1/C=C1\N=C(C)C(CC(=O)OCC(C)(C)C)=C1C | 0.244 µM | 1.24 µM | 0.286 µM | 1.87 µM | 0.226 µM | 1.53 µM | 0.211 µM | 1.12 µM | 0.256 µM | 1.91 µM | 0.0733 µM | 0.467 µM | 0.212 µM | 0.658 µM | 0.23 µM | 1.51 µM | 0.192 µM | 1.48 µM | 0.157 µM | 0.887 µM
CC(C)(C)[Si](C)(C)OC1[C@@H](COC(=O)NC(=O)CCl)O[C@@H](n2cnc3c(N)ncnc32)[C@H]1O[Si](C)(C)C(C)(C)C (some centres not stated) | 4.94 µM | 11.9 µM | 0.922 µM | 1.85 µM | 5.75 µM | 12 µM | 1 µM | 2.21 µM | 7.62 µM | 19.3 µM | 0.41 µM | 1.13 µM | 1.39 µM | 4.23 µM | 0.122 µM | 0.312 µM | 1.73 µM | 6.54 µM | 4.94 µM | 11.1 µM
Cc1c(C(N)=O)sc2nc(C)n(/N=c3\scc(-c4ccccc4)n3Cc3ccccc3)c(=O)c12 | 3.79 µM | > 100 µM | 2.41 µM | 8.89 µM | 3.9 µM | > 100 µM | 2.64 µM | > 100 µM | 3.85 µM | > 100 µM | 3.54 µM | > 100 µM | 3.88 µM | 84.5 µM | 1.73 µM | 7.23 µM | 3.16 µM | > 100 µM | 3.25 µM | > 100 µM
CN(CCCCCl)P(=O)(OCc1ccc([N+](=O)[O-])o1)OCC1OC(n2cc([N+](=O)[O-])c(=O)[nH]c2=O)CC1O (configuration not stated) | > 100 µM | > 100 µM | 46.2 µM | > 100 µM | > 100 µM | > 100 µM | > 100 µM | > 100 µM | > 100 µM | > 100 µM | 47.3 µM | > 100 µM | 31.3 µM | > 100 µM | > 100 µM | > 100 µM | > 100 µM | > 100 µM | > 100 µM | > 100 µM
CC/C=C\C[C@H]1C/C=C2/C(=O)C(Cl)=C[C@@H]2C/C=C\CCCC(=O)O1 | 0.748 µM | 2.75 µM | 0.524 µM | 1.21 µM | 0.517 µM | 1.85 µM | 0.109 µM | 0.72 µM | 0.698 µM | 25 µM | 0.159 µM | 0.52 µM | 0.681 µM | 3.08 µM | 0.156 µM | 0.556 µM | 0.0995 µM | 0.596 µM | 0.58 µM | 2.36 µM
COc1cnccc1Nc1nc(-c2nn(Cc3c(F)cc(OCCO)cc3F)c3ccccc23)ncc1OC | 2.93 µM | 10.3 µM | 6.51 µM | 28.5 µM | 3.11 µM | 11.5 µM | 2.63 µM | > 100 µM | 9.08 µM | 26.3 µM | 1.84 µM | 19.3 µM | 1.79 µM | 10 µM | 1.82 µM | 8.55 µM | 1.99 µM | 7.4 µM | 16.5 µM | 72.7 µM
N=C(CC(=O)Nc1ccccn1)c1ccccc1 | – | > 100 µM | – | > 100 µM | – | > 100 µM | – | > 100 µM | – | > 100 µM | – | > 100 µM | – | > 100 µM | – | > 100 µM | – | > 100 µM | – | > 100 µM
C[C@]12CCC(=O)C[C@@H]1CC[C@@H]1[C@@H]2CC[C@]2(C)[C@@H](OC(=O)N(CCCl)N=O)CC[C@@H]12 | 0.353 µM | 11.6 µM | 4.87 µM | 21.7 µM | 0.405 µM | 3.95 µM | 2.26 µM | 14 µM | 2.13 µM | 16.9 µM | 0.625 µM | 15.4 µM | 0.752 µM | 22.3 µM | 2.48 µM | 20.4 µM | 1.11 µM | 19 µM | 2.91 µM | 30 µM
CCOC(=O)/C=C1/SC(=Nc2ccc(C#N)cc2)N(Cc2ccco2)C1=O | 10.4 µM | 26.1 µM | 10.8 µM | 52.6 µM | 3.17 µM | 10.5 µM | 2.02 µM | 5.13 µM | 6.96 µM | > 100 µM | 1.72 µM | 3.32 µM | 2.22 µM | 6.55 µM | 1.83 µM | 4.12 µM | 2.06 µM | 4.97 µM | 2.57 µM | 8.24 µM
